For one series, the system named is Phytophthora infestans. Briefly: whole plant or invertebrate. Particulars: foliar, 96 h, read-out: control of fungal infection, Phytophthora infestans. In kind it is in vivo.
In the next series the test system is Plasmopara viticola. In words: Plasmopara viticola (downy mildew of grapevine) leaf disk assay. Format: in vivo. Particulars: foliar, 168 h, preventive, seven days after inoculation, read-out: control of fungal infection, Plasmopara viticola.
Series [1] concerns Puccinia recondita f.sp. tritici. In words: Puccinia recondita f.sp. tritici (wheat brown rust) leaf disk assay. Format: in vivo. Particulars: foliar, 216 h, preventive, nine days after inoculation, read-out: control of fungal infection, Puccinia recondita f.sp. tritici.
Another series relates to Pyricularia oryzae. Briefly: whole plant or invertebrate. In kind it is in vivo. Particulars: foliar, 96 h.
A further series has as its system Aedes aegypti. In words: Aedes aegypti (Yellow fever mosquito) larvae test. Particulars: 48 h. In kind it is in vivo.
The subject of a further series is Plutella xylostella. Briefly: Plutella xylostella (Diamond back moth) artificial diet test. Particulars: 120 h, read-out: control of Plutella xylostella.
In series [2] the test system is Erysiphe graminis f.sp. tritici. In words: Erysiphe graminis f.sp. tritici (wheat powdery mildew) leaf disk assay. Format: in vivo. Particulars: Blumeria graminis, foliar, 96 h, preventive, four days after inoculation, read-out: control of fungal infection, Erysiphe graminis fsp. tritici.
Setting [3] is: read-out: control of fungal infection, Pyricularia oryzae (at least 60% list).
Setting [4] is: read-out: control of fungal infection, Pyricularia oryzae (at least 80% list).

Where two headings read alike, the source gives them in different places. Bounds are passed on as bounds.

Consider `COc1cc(C(C)=O)ccc1OC1C[C@H]2CC[C@@H](C1)N2c1ncnc2sccc12` (some centres unmarked), for which the melting point was determined as 171 °C.

In turn, `CCc1ncnc(N2[C@@H]3CC[C@H]2CC(O)C3)c1Cl` (some centres unmarked) gave a melting point of 104 °C.

`Cc1nn(C)c2nccc(N3[C@@H]4CC[C@H]3CC(Oc3ccc(Cl)cc3)C4)c12` (some centres unmarked) registered a melting point of 155 °C.

For `CCc1ncnc(N2[C@@H]3CC[C@H]2CC(ON)C3)c1Cl` (some centres unmarked), the melting point is 70 °C.

In the case of `Cc1noc2ncnc(N3[C@@H]4CC[C@H]3CC(Oc3cc(C(F)(F)F)ccn3)C4)c12` (some centres unmarked), the melting point came out at 192 °C.

In turn, `Cc1noc2ncnc(N3[C@@H]4CC[C@H]3CC(Oc3ccc(C(F)(F)F)cn3)C4)c12` (some centres unmarked) registered a melting point of 238 °C.

With `N#Cc1c(Cl)nsc1N1[C@@H]2CC[C@H]1CC(Oc1cccc(C(F)(F)F)n1)C2` (some centres unmarked), the melting point was 158 °C.

`N#Cc1sc(N2[C@@H]3CC[C@H]2CC(Oc2cccc(C(F)(F)F)n2)C3)nc1C(F)(F)F` (some centres unmarked) registered a melting point of 147 °C.

For `FC(F)(F)c1ccc(OC2C[C@H]3CC[C@@H](C2)N3c2ccnc3cc(Cl)ccc23)nc1` (some centres unmarked), the melting point stood at 107 °C.

`N#Cc1sc(N2[C@@H]3CC[C@H]2CC(Oc2cc(C(F)(F)F)ccn2)C3)nc1C(F)(F)F` (some centres unmarked) came in with a melting point of 129 °C.

In turn, `N#Cc1c(Cl)nsc1N1[C@@H]2CC[C@H]1CC(Oc1ccc(C(F)(F)F)cn1)C2` (some centres unmarked) had a melting point of 157 °C.

`N#Cc1sc(N2[C@@H]3CC[C@H]2CC(Oc2ccc(C(F)(F)F)cn2)C3)nc1C(F)(F)F` (some centres unmarked) displayed a melting point of 135 °C.

Consider `Cn1cc(C(=O)N2[C@@H]3CC[C@H]2CC(Oc2cc(C(F)(F)F)ccn2)C3)c(C(F)(F)F)c1` (some centres unmarked), for which the melting point amounted to 183 °C.

Consider `Clc1ccc(OC2C[C@H]3CC[C@@H](C2)N3c2ncnc3sccc23)cc1` (some centres unmarked), for which the melting point was 184 °C.

With `FC(F)(F)c1ccnc(OC2C[C@H]3CC[C@@H](C2)N3c2ncnc3ccsc23)c1` (some centres unmarked), the melting point came out at 211 °C.

`Cc1csc2c(N3[C@@H]4CC[C@H]3CC(Oc3cc(C(F)(F)F)ccn3)C4)ncnc12` (some centres unmarked) had a melting point of 76 °C.

For `CCc1ncnc(N2C3CCC2CC(=CC(=O)O)C3)c1Cl`, the melting point came out at 162 °C.

`CC(=O)NC1C[C@H]2CC[C@@H](C1)N2c1ncnc2sccc12` (some centres unmarked) gave a melting point of 196 °C.

`O=C(NC1C[C@H]2CC[C@@H](C1)N2c1ncnc2sccc12)c1cccnc1` (some centres unmarked): the melting point worked out at 170 °C.

For `CCc1ncnc(N2C3CCC2CC(=NO)C3)c1Cl`, the melting point came out at 73 °C.

Turning to `Cc1nn(C)c2nccc(N3C4CCC3CC(=NO)C4)c12`, the melting point is 201 °C.

With `CCc1ncnc(N2C3CCC2CC(CC(N)=O)C3)c1Cl` (centres unmarked), the melting point worked out at 101 °C.

As for `CCc1ncnc(N2C3CCC2CC(CC(N)=S)C3)c1Cl` (centres unmarked), the melting point came to 160 °C.

Molecule `CCc1ncnc(N2C3CCC2CC(CC(=O)O)C3)c1Cl` (centres unmarked) returned a melting point of 109 °C.

On to `O=C(O)CC1CC2CCC(C1)N2c1ncnc2sccc12` (centres unmarked), for which the melting point came out at 181 °C.

As for `Cc1nc(OC2C[C@H]3CC[C@@H](C2)N3c2ncnc3sccc23)cc(N(C)C)n1` (some centres unmarked) [Example 1.53], the pest or weed control at 200 ppm in the series on Phytophthora infestans and in the series with Plasmopara viticola was not below 80% each time.

On to `Fc1cccc(OCC=C2CC3CCC(C2)N3c2ncnc3sccc23)c1` [Example 3.38], for which the pest or weed control at 200 ppm is not below 80% in series [1]; not below 60% in the series with Pyricularia oryzae (setting [3]); not below 80% in the series on Pyricularia oryzae (setting [4]); not below 80% with Plutella xylostella; not below 80% in the series with Plasmopara viticola. This molecule also returned a pest or weed control at 2 ppm in the series on Aedes aegypti not below 80%.

For the molecule `CCc1ccc(CON=C2CC3CCC(C2)N3c2ncnc(CC)c2Cl)cc1` [Example 5.17], the pest or weed control at 200 ppm (in series [1]; in the series on Plutella xylostella; in series [2]; in the series with Phytophthora infestans; in the series on Plasmopara viticola) was not below 80% throughout. This molecule showed a pest or weed control at 2 ppm in the series on Aedes aegypti not below 80%.

`CCc1ncnc(N2C3CCC2CC(=NOCc2ccc(Br)cc2)C3)c1Cl` [Example 5.19]: the pest or weed control at 200 ppm (in series [1]; in the series on Plutella xylostella; in series [2]; with Phytophthora infestans; in the series with Plasmopara viticola) was not below 80% in each case.

As to `Clc1ccccc1CON=C1CC2CCC(C1)N2c1ncnc2sccc12` [Example 5.141], the pest or weed control at 200 ppm in series [1] was not below 80%; in the series with Pyricularia oryzae (setting [3]) it was not below 60%; in the series on Plutella xylostella it was not below 80%; in series [2], not below 80%; in the series with Phytophthora infestans, not below 80%; in the series on Plasmopara viticola, not below 80%. This molecule returned a pest or weed control at 2 ppm in the series with Aedes aegypti not below 80%.

Consider `Clc1ccc(CON=C2CC3CCC(C2)N3c2ncnc3sccc23)cc1` [Example 5.142], for which the pest or weed control at 200 ppm is not below 80% in series [1]; not below 60% with Pyricularia oryzae (setting [3]); not below 80% with Plutella xylostella; not below 80% in series [2]; not below 80% in the series with Plasmopara viticola. In the series on Aedes aegypti, the pest or weed control at 2 ppm was not below 80%.

On to `Cc1ccccc1CON=C1CC2CCC(C1)N2c1ncnc2sccc12` [Example 5.155], for which the pest or weed control at 200 ppm was not below 80% in series [1]; not below 60% in the series on Pyricularia oryzae (setting [3]); not below 80% in the series on Plutella xylostella; not below 80% in series [2]; not below 80% in the series with Plasmopara viticola. This molecule registered a pest or weed control at 2 ppm in the series on Aedes aegypti not below 80%.

On to `Cc1cccc(CON=C2CC3CCC(C2)N3c2ncnc3sccc23)c1` [Example 5.157], for which the pest or weed control at 200 ppm in series [1] is not below 80%; with Pyricularia oryzae (setting [3]), not below 60%; in series [2], not below 80%; in the series on Phytophthora infestans, not below 80%; in the series on Plasmopara viticola it was not below 80%.

For `Clc1ccc(CON=C2CC3CCC(C2)N3c2ncnc3sccc23)cc1Cl` [Example 5.169], the pest or weed control at 200 ppm is not below 80% in series [1]; not below 60% in the series on Pyricularia oryzae (setting [3]); not below 80% in the series with Pyricularia oryzae (setting [4]); not below 80% with Plutella xylostella; not below 80% in series [2]; not below 80% with Plasmopara viticola.

For `c1ccc2nc(CON=C3CC4CCC(C3)N4c3ncnc4sccc34)ccc2c1` [Example 5.193], the pest or weed control at 200 ppm (in series [1]; in series [2]; in the series with Plasmopara viticola) was not below 80% throughout. For the same molecule, the pest or weed control at 2 ppm with Aedes aegypti is not below 80%.

Consider `Fc1ccc(C(F)(F)F)cc1CON=C1CC2CCC(C1)N2c1ncnc2sccc12` [Example 5.238], for which the pest or weed control at 200 ppm in series [1] was not below 80%; in the series on Pyricularia oryzae (setting [3]), not below 60%; in the series on Plutella xylostella, not below 80%; in series [2], not below 80%; in the series with Plasmopara viticola it was not below 80%. The molecule also displayed a pest or weed control at 2 ppm with Aedes aegypti not below 80%.

Consider `Clc1cc2c(cc1CON=C1CC3CCC(C1)N3c1ncnc3sccc13)OCO2` [Example 5.250], for which the pest or weed control at 200 ppm (in series [1]; in series [2]; in the series on Plasmopara viticola) was not below 80% each time. The molecule also came in with a pest or weed control at 2 ppm in the series on Aedes aegypti not below 80%.

With `Clc1ccc(-c2nc(CON=C3CC4CCC(C3)N4c3ncnc4sccc34)cs2)cc1` [Example 5.255], the pest or weed control at 200 ppm (in series [1]; in series [2]; with Phytophthora infestans; in the series on Plasmopara viticola) was not below 80% throughout. Moreover, the pest or weed control at 2 ppm in the series with Aedes aegypti was not below 80%.

Consider `CC1(C)COC2(CC3CCC(C2)N3c2ncnc3sccc23)O1` (centres unmarked) [Example 6.2], for which the pest or weed control at 200 ppm (in series [1]; in series [2]; in the series with Phytophthora infestans; in the series with Plasmopara viticola) was not below 80% in each case.

As to `c1ccc(C2COC3(CC4CCC(C3)N4c3ncnc4sccc34)O2)cc1` (centres unmarked) [Example 6.7], the pest or weed control at 200 ppm was not below 80% in series [1]; not below 60% in the series on Pyricularia oryzae (setting [3]); not below 80% in the series with Pyricularia oryzae (setting [4]); not below 80% in series [2]; not below 80% in the series on Plasmopara viticola. In the series with Aedes aegypti, the pest or weed control at 2 ppm was not below 80%.

For `ClCC1COC2(CC3CCC(C2)N3c2ncnc3sccc23)O1` (centres unmarked) [Example 6.8], the pest or weed control at 200 ppm (in series [1]; in series [2]; in the series on Plasmopara viticola) was not below 80% in each case. The pest or weed control at 2 ppm in the series on Aedes aegypti is not below 80%.

Regarding `CCC1COC2(CC3CCC(C2)N3c2ncnc3sccc23)O1` (centres unmarked) [Example 6.9], the pest or weed control at 200 ppm (in series [1]; in series [2]; with Plasmopara viticola) was not below 80% throughout. In the series on Aedes aegypti, this molecule had a pest or weed control at 2 ppm not below 80%.

In the case of `FC(F)(F)c1csc(CC2CC3CCC(C2)N3c2ncnc3sccc23)n1` (centres unmarked) [Example 7.18], the pest or weed control at 200 ppm in series [1] is not below 80%; in the series with Pyricularia oryzae (setting [3]), not below 60%; in the series with Pyricularia oryzae (setting [4]), not below 80%; in the series on Plasmopara viticola, not below 80%. The molecule also yielded a pest or weed control at 2 ppm with Aedes aegypti not below 80%.

Regarding `Clc1ccc(-c2csc(CC3CC4CCC(C3)N4c3ncnc4sccc34)n2)cc1` (centres unmarked) [Example 7.19], the pest or weed control at 2 ppm in the series on Aedes aegypti is not below 80%. In addition, the pest or weed control at 200 ppm in the series with Plutella xylostella and with Plasmopara viticola was not below 80% throughout.

Values taken from patent US20100331348A1, “TROPANE DERIVATIVES USEFUL AS PESTICIDES” (SYNGENTA CROP PROTECTION, INC., priority 2007, published 2010).
